# Laboratory results reported in patent US8937077B2, “Bicyclic diamines as janus kinase inhibitors” (Merck Sharp & Dohme Corp., priority 2010, dated 2015).
# Target: T1, Jak1 (Homo sapiens, UniProt P23458)
# T1 construct: using a recombinant purified GST-tagged catalytic domain for each enzyme; GST; purchased Invitrogen M4290
# Assay: Jak Biochemical HTRF Assay (Jak1)
# Conditions: IC50 class, recombinant GST-tagged catalytic domain, read-out: Jak1 activity
# Description: Compounds of formula I can be prepared according to the general procedures described in the Schemes and Examples herein, using appropriate materials. Representative compounds of the present invention are exemplified herein below. The compounds exemplified are not, however, to be construed as limiting the scope of the invention in any manner. The examples further illustrate details for the preparation of the compounds of the present invention. Those skilled in the art will readily understand that known variations of protecting groups, of reagents, as well as of the conditions and processes of the following preparative procedures, can be used to prepare these compounds. It is also understood that whenever a chemical reagent is not commercially available, such a chemical reagent can be readily prepared by those skilled in the art by either following or adapting known methods described in the literature or described herein. Chiral analogs were prepared via incorporation of chiral reagents or obtained after chiral chromatography separation of a racemically generated analog. All temperatures are degrees Celsius unless otherwise noted. Mass spectra (MS) were measured either by electrospray ion-mass spectroscopy (ESMS) or by atmospheric pressure chemical ionization mass spectroscopy (APCI). Jak1 data were obtained using the in vitro assay described below.
# Jak Biochemical HTRF Assay Protocol
# The ability of compounds to inhibit the activity of Jak1, Jak2, Jak3, and Tyk2 was measured using a recombinant purified GST-tagged catalytic domain for each enzyme (Invitrogen Jak1 #M4290, […]) in an HTRF format biochemical assay. The reactions employed a common peptide substrate, LCB-EQEDEPEGDYFEWLW-NH2 (in-house). The basic assay protocol is as follows: First, […] of diluted compounds in DMSO were dispensed into the wells of a dry 384-well Black plate (Greiner #781076) using a Labcyte Echo 555 acoustic dispenser. Subsequent reagent additions employed an Agilent Bravo. Next, 18 μL, of 1.11X enzyme and 1.11X substrate in 1X assay buffer (Invitrogen kinase buffer #PV3189, 2 mM DTT, 0.05% BSA) were added to the wells and shaken and then preincubated for 30 minutes at room temperature to allow compound binding to equilibrate. After equilibration, 2 μL of 10X ATP in 1X assay buffer was added to initiate the kinase reaction and the plates were shaken and then incubated at room temperature for 120 minutes. At the end of the incubation, 20 μL of 2X stop buffer (streptavidin-Dylight (Thermo #21845), Eu-tagged pY20 antibody (Perkin Elmer #AD0067), EDTA, HEPES, and Triton) was added to quench the reaction. Plates were shaken and centrifuged and then incubated 60 minutes at room temperature and then read on a Perkin Elmer Envision (λex=337 nm, λem=665 and 615 nm, TRF delay time=20 μs). HTRF signal=10,000*665 nm reading/615 nm reading. After normalization to untreated controls, the percent inhibition of the HTRF signal at each compound concentration was calculated. The plot of percent inhibition versus the log of compound concentration was fit with a 4-parameter dose response equation to calculate IC50 values.
# T1 sequence (P23458 875-1153 limits assumed): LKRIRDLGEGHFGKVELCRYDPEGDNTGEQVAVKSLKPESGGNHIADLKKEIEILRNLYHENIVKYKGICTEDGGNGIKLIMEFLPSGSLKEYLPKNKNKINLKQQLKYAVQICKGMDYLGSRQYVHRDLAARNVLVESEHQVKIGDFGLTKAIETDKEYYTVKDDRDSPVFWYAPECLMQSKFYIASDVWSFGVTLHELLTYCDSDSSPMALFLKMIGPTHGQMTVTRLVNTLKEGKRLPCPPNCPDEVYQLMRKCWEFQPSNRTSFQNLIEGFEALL
row,IC50 [nM],SMILES
1,10 to 100,"COC(=O)c1ccc(CNC(=O)N2CCC[C@@H]3[C@H]2CCN3c2ncnc3[nH]ccc23)cc1 [Example 23, methyl 4-[({[(3aR,7aR)-1-(7H-pyrrolo[2,3-d]pyrimidin-4-yl)octahydro-4H-pyrrolo[3,2-b]-pyridine-4-yl]carbonyl}amino)methyl]benzoate]"
2,100 to 1000,"Cn1ccc2cc(C(=O)N3CCC[C@@H]4[C@H]3CCN4c3ncnc4[nH]ccc34)cnc21 [Example 29-50, 4-{(3aR,7aR)-4-[(1-methyl-1H-pyrrolo[2,3-b]pyridin-5-yl)carbonyl]octahydro-1H-pyrrolo[3,2-b]pyridin-1-yl}-7H-pyrrolo[2,3-d]pyrimidine]"
3,100 to 1000,"O=C(c1cn2ccc(Cl)cc2n1)N1CCC[C@@H]2[C@H]1CCN2c1ncnc2[nH]ccc12 [Example 29-60, 4-{(3aR,7aR)-4-[(7-chloroimidazo[1,2-a]pyridin-2-yl)carbonyl]octahydro-1H-pyrrolo[3,2-b]pyridin-1-yl}-7H-pyrrolo[2,3-d]pyrimidine]"
4,100 to 1000,"O=C(Cn1cnc2ccccc21)N1CCC[C@@H]2[C@H]1CCN2c1ncnc2[nH]ccc12 [Example 29-53, 4-[(3aR,7aR)-4-(1H-benzimidazol-1-ylacetyl)octahydro-1H-pyrrolo[3,2-b]pyridin-1-yl]-7H-pyrrolo[2,3-d]pyrimidine]"
5,100 to 1000,"COC(=O)c1cccc(COC(=O)N2CCC[C@@H]3[C@H]2CCN3c2ncnc3[nH]ccc23)c1 [Example 3-20, 3-(methoxycarbonyl)benzyl (3aR,7aR)-1-(7H-pyrrolo[2,3-d]pyrimidin-4-yl)octahydro-4H-pyrrolo[3,2-b]pyridine-4-carboxylate]"
6,10 to 100,"O=C(OCc1cccc(F)c1)N1CCCC2C1CCN2c1ncnc2[nH]ccc12 (stereo not drawn) [Example 3-9, 3-fluorobenzyl 1-(7H-pyrrolo[2,3-d]pyrimidin-4-yl)octahydro-4H-pyrrolo[3,2-b]-pyridine-4-carboxylate]"
7,10 to 100,"CC(Cc1ccccc1)C(=O)N1CCC[C@@H]2[C@H]1CCN2c1ncnc2[nH]ccc12 (mixture of isomers) [Example 29-56, (2S and 2R)-2-methyl-3-phenyl-1-[(3aR,7aR)-1-(7H-pyrrolo[2,3-d]pyrimidin-4-yl)octahydro-4H-pyrrolo[3,2-b]pyridine-4-yl]propan-1-one]"
8,10 to 100,"O=C(c1ccccc1Cl)N1CCC[C@@H]2[C@H]1CCN2c1ncnc2[nH]ccc12 [Example 29-17, 4-{(3aR,7aR)-4-[(2-chlorophenyl)carbonyl]octahydro-1H-pyrrolo[3,2-b]pyridin-1-yl}-7H-pyrrolo[2,3-d]pyrimidine]"
9,100 to 1000,"O=C(O)c1ccc(COC(=O)N2CCC[C@@H]3[C@H]2CCN3c2ncnc3[nH]ccc23)cc1 [Example 6, 4-[({[(3aR,7aR)-1-(7H-pyrrolo[2,3-d]pyrimidin-4-yl)octahydro-4H-pyrrolo[3,2-b]pyridine-4-yl]carbonyl}oxy)methyl]benzoic acid]"
10,10 to 100,"C[C@@H](OC(=O)N1CCCC2C1CCN2c1ncnc2[nH]ccc12)c1ccccc1 (stereo partly drawn) [Example 3-23, (1R)-1-phenylethyl 1-(7H-pyrrolo[2,3-d]pyrimidin-4-yl)octahydro-4H-pyrrolo[3,2-b]-pyridine-4-carboxylate]"
11,1 to 10,"O=S(=O)(CCc1ccccc1)N1CCC[C@@H]2[C@H]1CCN2c1ncnc2[nH]ccc12 [Example 32-2, 4-{(3aR,7aR)-4-[(2-phenylethyl)sulfonyl]octahydro-1H-pyrrolo[3,2-b]pyridin-1-yl}-7H-pyrrolo[2,3-d]pyrimidine]"
12,10 to 100,"O=C(OCc1ccc(F)cc1)N1CCCC2C1CCN2c1ncnc2[nH]ccc12 (stereo not drawn) [Example 3-2, 4-fluorobenzyl 1-(7H-pyrrolo[2,3-d]pyrimidin-4-yl)octahydro-4H-pyrrolo[3,2-b]-pyridine-4-carboxylate]"
13,10 to 100,"CCCCOC(=O)N1CCCC2C1CCN2c1ncnc2[nH]ccc12 (racemic) [Example 3-3, butyl 1-(7H-pyrrolo[2,3-d]pyrimidin-4-yl)octahydro-4H-pyrrolo[3,2-b]pyridine-4-carboxylate]"
14,10 to 100,"Cc1cccc(COC(=O)N2CCCC3C2CCN3c2ncnc3[nH]ccc23)c1 (stereo not drawn) [Example 3-16, 3-methylbenzyl 1-(7H-pyrrolo[2,3-d]pyrimidin-4-yl)octahydro-4H-pyrrolo[3,2-b]-pyridine-4-carboxylate]"
15,100 to 1000,"CC1CCN(C(=O)CC#N)C2CCN(c3ncnc4[nH]ccc34)C12 [Example 22, (3aS,7S,7aS and 3aR,7R,7aR) 3-[7-methyl-1-(7H-pyrrolo[2,3-d]pyrimidin-4-yl)octahydro-4H-pyrrolo[3,2-b]pyridin-4-yl]-3-oxopropanenitrile]"
16,100 to 1000,"CNC(=O)c1ccc(COC(=O)N2CCC[C@@H]3[C@H]2CCN3c2ncnc3[nH]ccc23)cc1 [Example 7-3, 4-(methylcarbamoyl)benzyl (3aR,7aR)-1-(7H-pyrrolo[2,3-d]pyrimidin-4-yl)octahydro-4H-pyrrolo[3,2-b]pyridine-4-carboxylate]"
17,100 to 1000,"O=C(CO)N1CCCC2C1CCN2c1ncnc2[nH]ccc12 [Example 17, (3aS,7aS and 3aR,7aR) 2-hydroxy-1-[1-(7H-pyrrolo[2,3-d]pyrimidin-4-yl)octahydro-4H-pyrrolo[3,2-b]pyridine-4-yl]ethanone]"
18,100 to 1000,"Cc1cc(C(=O)N2CCC[C@@H]3[C@H]2CCN3c2ncnc3[nH]ccc23)no1 [Example 29-14, 4-{(3aR,7aR)-4[(5-methylisoxazol-3-yl)carbonyl]octahydro-1H-pyrrolo[3,2-b]pyridin-1-yl}-7H-pyrrolo[2,3-d]pyrimidine]"
19,100 to 1000,"O=C(O)c1ccc(CCCN2CCC[C@@H]3[C@H]2CCN3c2ncnc3[nH]ccc23)cc1 [Example 14, 4-{3-[(3aR,7aR)-1-(7H-pyrrolo[2,3-d]pyrimidin-4-yl)octahydro-4H-pyrrolo[3,2-b]pyridin-4-yl]propyl}benzoic acid]"
20,100 to 1000,"CN(C)CCOC(=O)N1CCC[C@@H]2[C@H]1CCN2c1ncnc2[nH]ccc12 (single isomer, unassigned) [Example 3-38]"
21,100 to 1000,"COC(=O)c1ccc(COC(=O)N2CCC[C@H]3[C@@H]2CCN3c2ncnc3[nH]ccc23)cc1 [Example 5, 4-(methoxycarbonyl)benzyl (3aS,7aS)-1-(7H-pyrrolo[2,3-d]pyrimidin-4-yl)octahydro-4H pyrrolo[3,2-b]pyridine-4-carboxylate]"
22,100 to 1000,"CO[C@](C(=O)N1CCC[C@@H]2[C@H]1CCN2c1ncnc2[nH]ccc12)(c1ccccc1)C(F)(F)F [Example 18, (2S)-3,3,3-trifluoro-2-methoxy-2-phenyl-1-[(3aR,7aR)-1-(7H-pyrrolo[2,3-d]pyrimidin-4-yl)octahydro-4H-pyrrolo[3,2-b]pyridine-4-yl]propan-1 one]"
23,100 to 1000,"O=C(c1ccccc1-c1ccccc1)N1CCC[C@@H]2[C@H]1CCN2c1ncnc2[nH]ccc12 [Example 29-23, 4-[(3aR,7aR)-4-(biphenyl-2-ylcarbonyl)octahydro-1H-pyrrolo[3,2-b]pyridin-1-yl]-7H-pyrrolo[2,3-d]pyrimidine]"
24,10 to 100,"O=C(OCCCc1cccnc1)N1CCCC2C1CCN2c1ncnc2[nH]ccc12 (stereo not drawn) [Example 3-5, 3-pyridin-3-ylpropyl 1-(7H-pyrrolo[2,3-d]pyrimidin-4-yl)octahydro-4H-pyrrolo[3,2-b]-pyridine-4-carboxylate]"
25,10 to 100,"O=C(OCCOCC(F)(F)F)N1CCC[C@@H]2[C@H]1CCN2c1ncnc2[nH]ccc12 (single isomer, unassigned) [Example 3-43]"
26,1 to 10,"O=C(c1cccs1)N1CCC[C@@H]2[C@H]1CCN2c1ncnc2[nH]ccc12 [Example 29-28, 4-[(3aR,7aR)-4-(thiophen-2-ylcarbonyl)octahydro-1H-pyrrolo[3,2-b]pyridin-1-yl]-7H-pyrrolo[2,3-d]pyrimidine]"
27,100 to 1000,"O=C(OCCN1CCCC1)N1CCC[C@@H]2[C@H]1CCN2c1ncnc2[nH]ccc12 [Example 3-40, 2-pyrrolidin-1-ylethyl (3aR,7aR)-1-(7H-pyrrolo[2,3-d]pyrimidin-4-yl)octahydro-4H-pyrrolo[3,2-b]pyridine-4-carboxylate]"

# Same assay, conditions: recombinant GST-tagged catalytic domain, 31.8 μM ATP, read-out: Representative IC50 values
row,IC50 [nM],SMILES
1,39,"COC(=O)c1ccc(CNC(=O)N2CCC[C@@H]3[C@H]2CCN3c2ncnc3[nH]ccc23)cc1 [Example 23, methyl 4-[({[(3aR,7aR)-1-(7H-pyrrolo[2,3-d]pyrimidin-4-yl)octahydro-4H-pyrrolo[3,2-b]-pyridine-4-yl]carbonyl}amino)methyl]benzoate]"
2,7,"O=S(=O)(CCc1ccccc1)N1CCC[C@@H]2[C@H]1CCN2c1ncnc2[nH]ccc12 [Example 32-2, 4-{(3aR,7aR)-4-[(2-phenylethyl)sulfonyl]octahydro-1H-pyrrolo[3,2-b]pyridin-1-yl}-7H-pyrrolo[2,3-d]pyrimidine]"
3,5,"O=C(c1cccs1)N1CCC[C@@H]2[C@H]1CCN2c1ncnc2[nH]ccc12 [Example 29-28, 4-[(3aR,7aR)-4-(thiophen-2-ylcarbonyl)octahydro-1H-pyrrolo[3,2-b]pyridin-1-yl]-7H-pyrrolo[2,3-d]pyrimidine]"
